Results from patent publication US12583835B2, “Crystal form of nitroxoline prodrug, pharmaceutical composition containing same, and preparation method therefor and application thereof” (Jiangsu Yahong Meditech Co., Ltd., priority 2020, dated 2026).

Key:
[1] = Dynamic vapour sorption (DVS); format: physicochemical
Description: The DVS curves were acquired on DVS Intrinsic of SMS (Surface Measurement Systems). The relative humidity at 25° C. was corrected for the deliquescence points of LiCl, Mg(NO3)2 and KCl. • Test temperature: 25° C. • Sample amount: 10-20 mg • Shielding gas and flow: nitrogen, 200 mL/min • dm/dt: 0.002%/min; • Minimum dm/dt equilibration time: 10 min • Maximum equilibration time: 180 min • RH range: 0% RH-95% RH-0% RH • RH gradient: 10% 6. Polarizing Light Microscope (PLM)
The X-ray powder diffraction (XRPD) pattern of the solid is shown in FIG. 1, and the XRPD diffraction peak data thereof is shown in Table 1 below. […] (onset temperature). […] The PLM results are shown in FIG. 5, which indicate that the solid is irregular crystal particles. This crystal form is defined as crystal form A.

[2] = Stability test of crystal form A; format: physicochemical
Description: The crystal forms obtained in Examples 2-10 were packaged in double-layer PE bags+aluminum foil bags+cardboard barrels, sealed and stored at a temperature of 40° C. and a relative humidity of 75%; a temperature of 25° C. and a relative humidity of 60%; at 5±3° C. for 6 months. The inspection items (appearance, moisture, related substance 1, related substance 2, content) were tested, and the specific test methods were as follows.
• Moisture Meter • Electronic balance 1.2 Reagents • Karl Fischer titrant: analytical grad • Anhydrous methanol: analytical grade 1.3 Detection Method • About 50 mL of methanol was pumped into the titration beaker for pre-titration; • About 1.0 g of the test sample was accurately weighed and put into the titration beaker, stirred to dissolve, and the moisture of the test sample was titrated; • The weight of the test sample added, the concentration of the Karl Fischer titrant and the volume of the Karl Fischer titrant consumed during determination were recorded; the moisture of the second test sample was determined using the same method. 1.4 Calculation Formula
[formula] • V—Volume of Karl Fischer titrant consumed for the test sample, mL; • F—Equivalent mass of water per 1 mL of Karl Fischer titrant, mg/mL; • W—Weighed sample amount of the test sample, g. 2 Related Substance 1 2.1 Chromatographic Conditions: High Performance Liquid Chromatography (HPLC) • Column: Waters XBridge C18 4.6×150 mm, 5 μm • Detector: UV or equivalent detector • Wavelength: 210 nm • Column temperature: 35° C. • Flow rate: 1.0 mL/min • Injection volume: 10 μL • Needle Wash: Acetonitrile • Mobile phase gradient: […]
About 25 mg of the test sample was accurately weighed and put into a 50 mL volumetric flask. The diluent was added to dissolve the substance and dilute the solution to the mark, and the solution was shaken well.
[formula] • AU—the peak area of impurities in the test sample solution; • AT—Total peak area of the test sample solution. • 2) Total impurity (%)=Σ single impurity
• 3 Related Substance 2 (D-isobutyrylproline) • 3.1 Chromatographic Conditions: High Performance Liquid Chromatography (HPLC) • Column: Synergi Hydro RP 4.6×250 mm, 4 μm • Detector: UV or equivalent detector • Wave length: 210 nm • Column temperature: 35° C. • Flow rate: 1.0 mL/min • Injection volume: 5 μL • Needle Wash: Acetonitrile • Mobile phase gradient: […]
About 20 mg of the test sample was accurately weighed and put into a 10 mL volumetric flask. The diluent was added to dissolve the test sample and dilute the solution to the mark, and the solution was shaken well. Two solutions were prepared in parallel and labeled as S1/S2 respectively. • 3.4 Calculation: Only the Peak of Related Substance 2 was Integrated
[formula] [formula] • ARS2—Average peak area of reference solution 2; • ARS1—Average peak area of 5 injections of reference solution 1; • As—Peak area of related substance 2 in the test sample solution; • MRS1—Weighed sample amount of related substance 2 in reference solution 1, mg; • Ms—Weighed sample amount of the test sample in the test sample solution, mg; • MRS2—Weighed sample amount of related substance 2 in reference solution 2, mg; […]

CC(C)C(=O)N1CCC[C@H]1C(=O)OCOc1ccc([N+](=O)[O-])c2cccnc12 [crystal form A, ((5-nitroquinolin-8-yl)oxy)methyl-isobutyryl-L-prolinate]
crystal form before and after the DVS test (XRPD) [1]: unchanged | vapor sorption (DVS) ([1]; 25° C./80% RH): 0.17% | Appearance ([2]; 5 ± 3° C., Time 0): Yellow solid | Content ([2]; 5 ± 3° C., Time 0): 101.1% | Moisture ([2]; 5 ± 3° C., Time 0): 0.09% | Related substance 1 5-Nitro-8-hydroxyquinoline ([2]; 5 ± 3° C., Time 0): 0.04% | Related substance 1 Impurity 1 ([2]; 5 ± 3° C., Time 0): 0.27% | Related substance 1 Maximum unknown single impurity ([2]; 5 ± 3° C., Time 0): RRT 1.126: 0.07% | Related substance 1 Total impurities ([2]; 5 ± 3° C., Time 0): 0.53% | Related substance 2 ([2]; 5 ± 3° C., Time 0): 0.06% | Appearance ([2]; 5 ± 3° C., Time 6 M): Yellow solid | Content ([2]; 5 ± 3° C., Time 6 M): 99.6% | Moisture ([2]; 5 ± 3° C., Time 6 M): 0.1% | Related substance 1 Impurity 1 ([2]; 5 ± 3° C., Time 6 M): 0.3% | Related substance 1 Impurity 2 ([2]; 5 ± 3° C., Time 6 M): <0.01% | Related substance 1 Maximum unknown single impurity ([2]; 5 ± 3° C., Time 6 M): RRT 1.121: 0.07% | Related substance 1 Total impurities ([2]; 5 ± 3° C., Time 6 M): 0.5% | Related substance 2 ([2]; 5 ± 3° C., Time 6 M): 0.03% | Appearance ([2]; 25° C., 60% RH, Time 0): Yellow solid | Content ([2]; 25° C., 60% RH, Time 0): 101.1% | Moisture ([2]; 25° C., 60% RH, Time 0): 0.09% | Related substance 1 Impurity 1 ([2]; 25° C., 60% RH, Time 0): 0.27% | Related substance 1 Maximum unknown single impurity ([2]; 25° C., 60% RH, Time 0): RRT 1.126: 0.07% | Related substance 1 Total impurities ([2]; 25° C., 60% RH, Time 0): 0.53% | Related substance 2 ([2]; 25° C., 60% RH, Time 0): 0.06% | Appearance ([2]; 25° C., 60% RH, Time 3 M): Yellow solid | Content ([2]; 25° C., 60% RH, Time 3 M): 99.3% | Moisture ([2]; 25° C., 60% RH, Time 3 M): 0.07% | Related substance 1 Impurity 1 ([2]; 25° C., 60% RH, Time 3 M): 0.32% | Related substance 1 Impurity 2 ([2]; 25° C., 60% RH, Time 3 M): <0.01% | Related substance 1 Maximum unknown single impurity ([2]; 25° C., 60% RH, Time 3 M): RRT 1.123: 0.06% | Related substance 1 Total impurities ([2]; 25° C., 60% RH, Time 3 M): 0.51% | Related substance 2 ([2]; 25° C., 60% RH, Time 3 M): 0.04% | Appearance ([2]; 25° C., 60% RH, Time 6 M): Yellow solid | Content ([2]; 25° C., 60% RH, Time 6 M): 99.8% | Moisture ([2]; 25° C., 60% RH, Time 6 M): <0.1% | Related substance 1 Impurity 1 ([2]; 25° C., 60% RH, Time 6 M): 0.3% | Related substance 1 Impurity 2 ([2]; 25° C., 60% RH, Time 6 M): <0.01% | Related substance 1 Maximum unknown single impurity ([2]; 25° C., 60% RH, Time 6 M): RRT 1.121: 0.06% | Related substance 1 Total impurities ([2]; 25° C., 60% RH, Time 6 M): 0.5% | Related substance 2 ([2]; 25° C., 60% RH, Time 6 M): 0.04% | Appearance ([2]; 40° C., 75% RH, Time 0): Yellow solid | Content ([2]; 40° C., 75% RH, Time 0): 101.1% | Moisture ([2]; 40° C., 75% RH, Time 0): 0.09% | Related substance 1 5-Nitro-8-hydroxyquinoline ([2]; 40° C., 75% RH, Time 0): 0.04% | Related substance 1 Impurity 1 ([2]; 40° C., 75% RH, Time 0): 0.27% | Related substance 1 Maximum unknown single impurity ([2]; 40° C., 75% RH, Time 0): RRT 1.126: 0.07% | Related substance 1 Total impurities ([2]; 40° C., 75% RH, Time 0): 0.53% | Related substance 2 ([2]; 40° C., 75% RH, Time 0): 0.06% | Appearance ([2]; 40° C., 75% RH, Time 1 M): Yellow solid | Content ([2]; 40° C., 75% RH, Time 1 M): 101.1% | Moisture ([2]; 40° C., 75% RH, Time 1 M): 0.06% | Related substance 1 5-Nitro-8-hydroxyquinoline ([2]; 40° C., 75% RH, Time 1 M): 0.02% | Related substance 1 Impurity 1 ([2]; 40° C., 75% RH, Time 1 M): 0.27% | Related substance 1 Maximum unknown single impurity ([2]; 40° C., 75% RH, Time 1 M): RRT 1.125: 0.06% | Related substance 1 Total impurities ([2]; 40° C., 75% RH, Time 1 M): 0.52% | Related substance 2 ([2]; 40° C., 75% RH, Time 1 M): 0.05% | Appearance ([2]; 40° C., 75% RH, Time 2 M): Yellow solid | Content ([2]; 40° C., 75% RH, Time 2 M): 98.8% | Moisture ([2]; 40° C., 75% RH, Time 2 M): 0.09% | Related substance 1 Impurity 1 ([2]; 40° C., 75% RH, Time 2 M): 0.27% | Related substance 1 Impurity 2 ([2]; 40° C., 75% RH, Time 2 M): 0.01% | Related substance 1 Maximum unknown single impurity ([2]; 40° C., 75% RH, Time 2 M): RRT 1.132: 0.05% | Related substance 1 Total impurities ([2]; 40° C., 75% RH, Time 2 M): 0.44% | Related substance 2 ([2]; 40° C., 75% RH, Time 2 M): 0.06% | Appearance ([2]; 40° C., 75% RH, Time 3 M): Yellow solid | Content ([2]; 40° C., 75% RH, Time 3 M): 99.3% | Moisture ([2]; 40° C., 75% RH, Time 3 M): 0.06% | Related substance 1 Impurity 1 ([2]; 40° C., 75% RH, Time 3 M): 0.32% | Related substance 1 Maximum unknown single impurity ([2]; 40° C., 75% RH, Time 3 M): RRT 1.123: 0.05% | Related substance 1 Total impurities ([2]; 40° C., 75% RH, Time 3 M): 0.49% | Related substance 2 ([2]; 40° C., 75% RH, Time 3 M): 0.10% | Appearance ([2]; 40° C., 75% RH, Time 6 M): Yellow solid | Content ([2]; 40° C., 75% RH, Time 6 M): 99.7% | Moisture ([2]; 40° C., 75% RH, Time 6 M): <0.1% | Related substance 1 5-Nitro-8-hydroxyquinoline ([2]; 40° C., 75% RH, Time 6 M): <0.1% | Related substance 1 Impurity 1 ([2]; 40° C., 75% RH, Time 6 M): 0.3% | Related substance 1 Impurity 2 ([2]; 40° C., 75% RH, Time 6 M): <0.01% | Related substance 1 Maximum unknown single impurity ([2]; 40° C., 75% RH, Time 6 M): RRT 0.896: 0.04% | Related substance 1 Total impurities ([2]; 40° C., 75% RH, Time 6 M): 0.6% | Related substance 2 ([2]; 40° C., 75% RH, Time 6 M): 0.15%
